From patent US4032529A, “Aminomethanobenzazocine intermediates” (Sterling Drug Inc., priority 1975, dated 1977)
Counter-ions that a name gives are not always drawn.

Each compound was assayed on acetylcholine-induced writhing in mice (assay: acetylcholine writhing test, a primary screening test for analgesia). Conditions: Mus musculus, sc, 20 min; subcutaneous; mice dosed 20 minutes prior to acetylcholine 3.2 mg./kg. intraperitoneal; 2-minute observation; probit analysis.
Type: in vivo
Method: All of the compounds of Formula I of the examples were tested and determined to be active in the acetylcholine writhing test, a primary screening test for analgesia. In this test the ability of test compounds to prevent acetylcholine-induced writhing in mice is determined. The following is an adaptation of the method of Collier and co-workers (Brit. J. Pharmacol. Chemother., 32, 295(1968)) by Anne K. Pierson. […] The mice are dosed with the test compound plus vehicle or vehicle alone (controls) 20 minutes prior to, and are observed for 2 minutes after, the acetylchloine injection. During the 2-minute observation period mice not responding by writhing are scored protected and mice responding by writhing one or more times are scored not protected. The mice are dosed orally (usually at 150-200 mg./kg.) or subcutaneously (usually at 75-100 mg./kg.). Fifteen mice per does level are used. ED50 values for active compounds are calculated by probit analysis (C. I. Bliss, The Statistics of Bioassay, Academic Press, New York, 1952) of quantal scores of tests at four or more appropriate dose levels. The following subcutaneous ED50 values for the compounds of Formula I of the examples were determined.

Which ED50 does the source give for C[C@@H]1[C@@H]2Cc3ccc(N)cc3[C@@]1(C)CCN2CC1CC1 (relative stereo) [Example 1B, 8-amino-3-(cyclopropylmethyl)-1,2,3,4,5,6-hexahydro-cis-6,11-dimethyl-2,6-methano-3-benzazocine dihydrochloride] here?
The ED50 was 0.8 mg/kg.

C[C@@H]1[C@@H]2Cc3ccc(NCC4CC4)cc3[C@@]1(C)CCN2CC1CC1 (relative stereo) [Example 2E, 3-(cyclopropylmethyl)-8-(cyclopropylmethylamino)-1,2,3,4,5,6-hexahydro-cis-6,11-dimethyl-2,6-methano-3-benzazocine hydrochloride] was tested. Which ED50 did it give?
The ED50 was 0.7 mg/kg.

How did the ED50 turn out when CNc1ccc2c(c1)[C@@]1(C)CCN(CC3CC3)[C@@H](C2)[C@H]1C (relative stereo) [Example 3B, 3-(cyclopropylmethyl)-1,2,3,4,5,6-hexahydro-cis-6,11-dimethyl-8-(methylamino)-2,6-methano-3-benzazocine dihydrochloride ethanolate hydrate] was run?
The ED50 was 0.44 mg/kg.

With C[C@@H]1[C@@H]2Cc3ccc(N(C)C)cc3[C@@]1(C)CCN2CC1CC1 (relative stereo) [Example 4F, 3-cyclopropylmethyl-8-dimethylamino-cis-6,11-dimethyl-1,2,3,4,5,6-hexahydro-2,6-methano-3-benzazocine dihydrochloride] as the compound, how does the ED50 read?
Its ED50 is 0.79 mg/kg.

With CC(C)CN1CC[C@]2(C)c3cc(N)ccc3C[C@H]1[C@H]2C (relative stereo) [Example 5C, 8-amino-1,2,3,4,5,6-hexahydro-3-isobutyl-cis-6,11-dimethyl-2,6-methano-3-benzazocine dihydrochloride] as the compound, how does the ED50 read?
Its ED50 is 1.5 mg/kg.

Which ED50 does the source give for CCCN1CC[C@]2(C)c3cc(N)ccc3C[C@H]1[C@H]2C (relative stereo) [Example 6C, 8-amino-cis-6,11-dimethyl-1,2,3,4,5,6-hexahydro-3-propyl-2,6-methano-3-benzazocine dihydrochloride sesquihydrate] here?
The ED50 was 5.6 mg/kg.

For C[C@@H]1[C@@H]2Cc3ccc(NCc4ccccc4)cc3[C@@]1(C)CCN2CC1CC1 (relative stereo) [Example 7, 3-(cyclopropylmethyl)-1,2,3,4,5,6-hexahydro-cis-6,11-dimethyl-8-benzylamino-2,6-methano-3-benzazocine dihydrochloride], which ED50 is on record?
Its ED50 is 1.6 mg/kg.

For C=CCN1CC[C@]2(C)c3cc(N)ccc3C[C@H]1[C@H]2C (relative stereo) [Example 8C, 8-amino-1,2,3,4,5,6-hexahydro-cis-6,11-dimethyl-3-(2-propenyl)-2,6-methano-3-benzazocine dihydrochloride], which ED50 is on record?
The ED50 was 2.5 mg/kg.

How did the ED50 turn out when CCNc1ccc2c(c1)[C@@]1(C)CCN(CC3CC3)[C@@H](C2)[C@H]1C (relative stereo) [Example 9B, 3-(cyclopropylmethyl)-8-(ethylamino)-1,2,3,4,5,6-hexahydro-cis-6,11-dimethyl-2,6-methano-3-benzazocine] was run?
The ED50 was 1.3 mg/kg.

With CCCNc1ccc2c(c1)[C@@]1(C)CCN(CC3CC3)[C@@H](C2)[C@H]1C (relative stereo) [Example 10B, 3-(cyclopropylmethyl)-1,2,3,4,5,6-hexahydro-cis-6,11-dimethyl-8-(propylamino)-2,6-methano-3-benzazocine] as the compound, how does the ED50 read?
The ED50 was 1.2 mg/kg.

With CCCCNc1ccc2c(c1)[C@@]1(C)CCN(CC3CC3)[C@@H](C2)[C@H]1C (relative stereo) [Example 11B, 8-(butylamino)-3-(cyclopropylmethyl)-1,2,3,4,5,6-hexahydro-cis-6,11-dimethyl-2,6-methano-3-benzazocine] as the compound, how does the ED50 read?
The ED50 was 1 mg/kg.

For CC[C@@H]1[C@@H]2Cc3ccc(N)cc3[C@@]1(CC)CCN2CC1CC1 (relative stereo) [Example 12H, 8-amino-3-(cyclopropylmethyl)-cis-6,11-diethyl-1,2,3,4,5,6-hexahydro-2,6-methano-3-benzazocine dihydrochloride], which ED50 is on record?
Its ED50 is 1.3 mg/kg.
